Assay results: patent US10253002B2, “Compounds and methods of treating infections” (Neoculi Pty Ltd., priority 2013, dated 2019)
In brackets after ≈: the same amount, converted by molar mass. Read-outs that look alike come from different tables or passages of the source.

Assays:
Experiment in all cases: Broth microdilution MIC, Example 7 (NCL812 and analogues)
Escherichia coli = type: cell-based; conditions: 24 hours
VRE = type: cell-based, Enterococcus spp.; conditions: for MIC: Enterococcus, VRE, 24 h
In short: (§1)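 Duplicates per isolate, repeated a third time if >one two-fold dilution apart. MIC50, MIC20 and range calculated per bacterial group.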

Pseudomonas aeruginosa = type: cell-based
MRSA = type: cell-based, Staphylococcus aureus; conditions: for MIC: Staphylococcus aureus, MRSA, 24 h
In short: as §1

[1] = E. coli, duplicate lines per compound
[2] = VRE 1, 24 hours, duplicate lines per compound
[3] = VRE 2, 24 hours, duplicate lines per compound
[4] = P. aeruginosa, duplicate lines per compound
[5] = MRSA 1, 24 hours, duplicate lines per compound
[6] = MRSA 2, 24 hours, duplicate lines per compound
[7] = isolate VRE 1, 24 hours, 1st and 2nd replicate rows
[8] = isolate VRE 2, 24 hours, 1st and 2nd replicate rows
[9] = isolate MRSA 1, 24 hours, 1st and 2nd replicate rows
[10] = isolate MRSA 2, 24 hours, 1st and 2nd replicate rows

MIC (μg/ml) at 24 hours, E. coli (Escherichia coli; [1]) [µg/mL] | MIC (μg/ml) at 24 hours, VRE 1 (VRE; [2]) [µg/mL] | MIC (μg/ml) at 24 hours, VRE 2 (VRE; [3]) [µg/mL] | MIC (μg/ml) at 24 hours, P. aeruginosa (Pseudomonas aeruginosa; [4]) [µg/mL] | MIC (μg/ml) at 24 hours, MRSA 1 (MRSA; [5]) [µg/mL] | MIC (μg/ml) at 24 hours, MRSA 2 (MRSA; [6]) [µg/mL] | MIC (μg/ml) at 24 hours, E. coli (Escherichia coli; 1st and 2nd replicate rows) [µg/mL] | MIC (μg/ml) at 24 hours, VRE 1 (VRE; [7]) [µg/mL] | MIC (μg/ml) at 24 hours, VRE 2 (VRE; [8]) [µg/mL] | MIC (μg/ml) at 24 hours, P. aeruginosa (Pseudomonas aeruginosa; 1st and 2nd replicate rows) [µg/mL] | MIC (μg/ml) at 24 hours, MRSA 1 (MRSA; [9]) [µg/mL] | MIC (μg/ml) at 24 hours, MRSA 2 (MRSA; [10]) [µg/mL] | SMILES | other results
>128 | >128 | >128 | >128 | 128 | 128 |  |  |  |  |  |  | COc1ccc(C=CC=NNC(=N)NN=CC=Cc2ccc(OC)cc2)cc1.Cl [NCL 150] | 
 |  |  |  |  |  |  |  |  |  |  |  | Nc1nc(N/N=C/c2ccc(O)cc2)cc(N/N=C/c2ccc(O)cc2)n1 [NCL196, 4,4′-((1E,1′E)-((2-aminopyrimidine-4,6-diyl)bis(hydrazin-2-yl-1ylidene))bis(methanylylidene))diphenol] | MIC (Escherichia coli; Escherichia coli, read-out: MIC (μg/ml) at 24 hours E. coli, E. coli): 64 µg/mL (≈ 176 µM); MIC (VRE; read-out: MIC (μg/ml) at 24 hours VRE 1, VRE 1, 24 hours): 32 µg/mL (≈ 88.1 µM); MIC (VRE; read-out: MIC (μg/ml) at 24 hours VRE 2, VRE 2, 24 hours): 64 µg/mL (≈ 176 µM); MIC (μg/ml) at 24 hours, VRE 1 (VRE; VRE 1, 24 hours): 64 µg/mL (≈ 176 µM); MIC (μg/ml) at 24 hours, P. aeruginosa (Pseudomonas aeruginosa; P. aeruginosa): 128 µg/mL (≈ 352 µM); MIC (Pseudomonas aeruginosa; Pseudomonas aeruginosa, 24 h, read-out: MIC (μg/ml) at 24 hours P. aeruginosa, P. aeruginosa, 24 hours): 64 µg/mL (≈ 176 µM); MIC (μg/ml) at 24 hours, MRSA 2 (MRSA; MRSA 2, 24 hours): 32 µg/mL (≈ 88.1 µM); MIC (MRSA; read-out: MIC (μg/ml) at 24 hours MRSA 1, MRSA 1, 24 hours): 32 µg/mL (≈ 88.1 µM); MIC (MRSA; read-out: MIC (μg/ml) at 24 hours MRSA 2, MRSA 2, 24 hours): 64 µg/mL (≈ 176 µM)
 |  |  |  |  |  |  |  |  |  |  |  | N=C(N/N=C/c1ccc(Cl)cc1)N(/N=C/c1ccc(Cl)cc1)C(=O)NCc1ccccc1 [NCL227] | MIC (μg/ml) at 24 hours, E. coli (Escherichia coli; E. coli): >128 µg/mL; MIC (μg/ml) at 24 hours, VRE 1 (VRE; VRE 1, 24 hours): >128 µg/mL; MIC (μg/ml) at 24 hours, VRE 2 (VRE; VRE 2, 24 hours): >128 µg/mL; MIC (μg/ml) at 24 hours, P. aeruginosa (Pseudomonas aeruginosa; P. aeruginosa): >128 µg/mL; MIC (μg/ml) at 24 hours, MRSA 1 (MRSA; MRSA 1, 24 hours): >128 µg/mL; MIC (μg/ml) at 24 hours, MRSA 2 (MRSA; MRSA 2, 24 hours): >128 µg/mL
 |  |  |  |  |  | >128 | >128 | >128 | >128 | >128 | >128 | O=C(N/N=C/c1ccccc1F)N/N=C/c1ccccc1F [NCL005] | 
>128 | >128 | >128 | >128 | >128 | >128 |  |  |  |  |  |  | CC(=O)Nc1ccc(C=NNC(=N)NN=Cc2ccc(NC(C)=O)cc2)cc1.Cl [NCL 119] | 
 |  |  |  |  |  | >128 | >128 | >128 | >128 | >128 | >128 | COc1ccc(/C=N/NC(=O)N/N=C/c2ccc(OC)cc2)cc1 [NCL006] | 
 |  |  |  |  |  |  |  |  |  |  |  | CCNC(=O)N(/N=C/c1ccc(Cl)cc1)C(N)=N/N=C/c1ccc(Cl)cc1 [NCL226] | MIC (μg/ml) at 24 hours, E. coli (Escherichia coli; E. coli): >128 µg/mL; MIC (μg/ml) at 24 hours, VRE 1 (VRE; VRE 1, 24 hours): >128 µg/mL; MIC (μg/ml) at 24 hours, VRE 2 (VRE; VRE 2, 24 hours): >128 µg/mL; MIC (μg/ml) at 24 hours, P. aeruginosa (Pseudomonas aeruginosa; P. aeruginosa): >128 µg/mL; MIC (μg/ml) at 24 hours, MRSA 1 (MRSA; MRSA 1, 24 hours): >128 µg/mL; MIC (μg/ml) at 24 hours, MRSA 2 (MRSA; MRSA 2, 24 hours): >128 µg/mL
 |  |  |  |  |  | >128 | >128 | >128 | >128 | >128 | >128 | COc1ccccc1/C=N/NC(=N)N.Cl [NCL034] | 
 |  |  |  |  |  | >128 | >128 | >128 | >128 | >128 | >128 | NC(=O)N/N=C/c1ccc(F)cc1 [NCL056] | 
>128 | >128 | >128 | >128 | >128 | >128 |  |  |  |  |  |  | Cl.N=C(N/N=C/c1ccc(Cl)cc1)N/N=C/c1cccc(Cl)c1 [NCL083] | 
>128 | >128 | >128 | >128 | >128 | >128 |  |  |  |  |  |  | CCCC(=NNC(=N)NN=C(CCC)c1ccc(Cl)cc1)c1ccc(Cl)cc1.Cl [NCL 156] | 
 |  |  |  |  |  | >128 | >128 | >128 | >128 | >128 | >128 | Fc1cccc(/C=N/NC(=S)N/N=C/c2cccc(F)c2)c1 [NCL066] | 
 |  |  |  |  |  |  |  |  |  |  |  | Cl.N=C(NN=Cc1cccnc1N)NN=Cc1cccnc1N [NCL 176] | MIC (μg/ml) at 24 hours, E. coli (Escherichia coli; E. coli): >128 µg/mL; MIC (μg/ml) at 24 hours, VRE 1 (VRE; VRE 1, 24 hours): >128 µg/mL; MIC (μg/ml) at 24 hours, VRE 2 (VRE; VRE 2, 24 hours): >128 µg/mL; MIC (μg/ml) at 24 hours, P. aeruginosa (Pseudomonas aeruginosa; P. aeruginosa): >128 µg/mL; MIC (μg/ml) at 24 hours, MRSA 1 (MRSA; MRSA 1, 24 hours): >128 µg/mL; MIC (μg/ml) at 24 hours, MRSA 2 (MRSA; MRSA 2, 24 hours): >128 µg/mL
 |  |  |  |  |  | >128 | >128 | >128 | >128 | >128 | >128 | N#Cc1ccc(/C=N/NC(N)=O)cc1 [NCL049] | 
 |  |  |  |  |  |  |  |  |  |  |  | Nc1nc(NNC(=O)c2ccccc2)cc(NNC(=O)c2ccccc2)n1 [NCL194] | MIC (μg/ml) at 24 hours, E. coli (Escherichia coli; E. coli): >128 µg/mL; MIC (μg/ml) at 24 hours, VRE 1 (VRE; VRE 1, 24 hours): >128 µg/mL; MIC (μg/ml) at 24 hours, VRE 2 (VRE; VRE 2, 24 hours): >128 µg/mL; MIC (μg/ml) at 24 hours, P. aeruginosa (Pseudomonas aeruginosa; P. aeruginosa): >128 µg/mL; MIC (μg/ml) at 24 hours, MRSA 1 (MRSA; MRSA 1, 24 hours): >128 µg/mL; MIC (μg/ml) at 24 hours, MRSA 2 (MRSA; MRSA 2, 24 hours): >128 µg/mL
 |  |  |  |  |  |  |  |  |  |  |  | CCCCCCNC(=O)N(N=Cc1ccc(Cl)cc1)C(N)=NN=Cc1ccc(Cl)cc1 [NCL228] | MIC (μg/ml) at 24 hours, E. coli (Escherichia coli; E. coli): >128 µg/mL; MIC (μg/ml) at 24 hours, VRE 1 (VRE; VRE 1, 24 hours): >128 µg/mL; MIC (μg/ml) at 24 hours, VRE 2 (VRE; VRE 2, 24 hours): >128 µg/mL; MIC (μg/ml) at 24 hours, P. aeruginosa (Pseudomonas aeruginosa; P. aeruginosa): >128 µg/mL; MIC (μg/ml) at 24 hours, MRSA 1 (MRSA; MRSA 1, 24 hours): >128 µg/mL; MIC (μg/ml) at 24 hours, MRSA 2 (MRSA; MRSA 2, 24 hours): >128 µg/mL
 |  |  |  |  |  | >128 | >128 | >128 | >128 | >128 | >128 | N#Cc1ccc(/C=N/NC(=O)N/N=C/c2ccc(C#N)cc2)cc1 [NCL007] | 
 |  |  |  |  |  | >128 | >128 | 128 | >128 | >128 | >128 | COc1ccccc1C=NNC(=N)NN=Cc1ccccc1OC.Cl [NCL028] | 
>128 | >128 | >128 | >128 | >128 | >128 |  |  |  |  |  |  | Cl.N=C(NN=Cc1cc(Cl)cc(Cl)c1)NN=Cc1cc(Cl)cc(Cl)c1 [NCL114] | 
>128 | 8 | 128 | >128 | 32 | 64 |  |  |  |  |  |  | Cl.N=C(NN=Cc1ccc(SC(F)(F)F)cc1)NN=Cc1ccc(SC(F)(F)F)cc1 [NCL 166] | 
>128 | >128 | >128 | >128 | >128 | >128 |  |  |  |  |  |  | Cl.N=C(NN=Cc1ccccc1-c1ccccc1)NN=Cc1ccccc1-c1ccccc1 [NCL 116] | 
>128 | >128 | >128 | >128 | >128 | >128 |  |  |  |  |  |  | Cl.N=C(N/N=C/c1ccncc1)N/N=C/c1ccncc1 [NCL 149] | 
 |  |  |  |  |  | >128 | >128 | >128 | >128 | >128 | >128 | COc1ccc(/C=N/NC(=N)N/N=C/c2ccc(OC)cc2)cc1.Cl [NCL027] | 
>128 | >128 | >128 | >128 | >128 | >128 |  |  |  |  |  |  | Cl.N=C(NN=Cc1c(Cl)cccc1Cl)NN=Cc1c(Cl)cccc1Cl [NCL 137] | 
 |  |  |  |  |  | >128 | >128 | >128 | >128 | >128 | >128 | NC(=O)N/N=C/c1cccc(Cl)c1 [NCL055] | 
